pIC50: −log10 of the molar value.
Experiments:
[1] = molecular target: T1, Phosphatidylinositol 4,5-bisphosphate 3-kinase catalytic subunit delta isoform (Homo sapiens, UniProt O00329); test: Inhibition of PI3Kdelta (unknown origin) measured by ADP-Glo assay
T1 sequence (O00329 whole entry): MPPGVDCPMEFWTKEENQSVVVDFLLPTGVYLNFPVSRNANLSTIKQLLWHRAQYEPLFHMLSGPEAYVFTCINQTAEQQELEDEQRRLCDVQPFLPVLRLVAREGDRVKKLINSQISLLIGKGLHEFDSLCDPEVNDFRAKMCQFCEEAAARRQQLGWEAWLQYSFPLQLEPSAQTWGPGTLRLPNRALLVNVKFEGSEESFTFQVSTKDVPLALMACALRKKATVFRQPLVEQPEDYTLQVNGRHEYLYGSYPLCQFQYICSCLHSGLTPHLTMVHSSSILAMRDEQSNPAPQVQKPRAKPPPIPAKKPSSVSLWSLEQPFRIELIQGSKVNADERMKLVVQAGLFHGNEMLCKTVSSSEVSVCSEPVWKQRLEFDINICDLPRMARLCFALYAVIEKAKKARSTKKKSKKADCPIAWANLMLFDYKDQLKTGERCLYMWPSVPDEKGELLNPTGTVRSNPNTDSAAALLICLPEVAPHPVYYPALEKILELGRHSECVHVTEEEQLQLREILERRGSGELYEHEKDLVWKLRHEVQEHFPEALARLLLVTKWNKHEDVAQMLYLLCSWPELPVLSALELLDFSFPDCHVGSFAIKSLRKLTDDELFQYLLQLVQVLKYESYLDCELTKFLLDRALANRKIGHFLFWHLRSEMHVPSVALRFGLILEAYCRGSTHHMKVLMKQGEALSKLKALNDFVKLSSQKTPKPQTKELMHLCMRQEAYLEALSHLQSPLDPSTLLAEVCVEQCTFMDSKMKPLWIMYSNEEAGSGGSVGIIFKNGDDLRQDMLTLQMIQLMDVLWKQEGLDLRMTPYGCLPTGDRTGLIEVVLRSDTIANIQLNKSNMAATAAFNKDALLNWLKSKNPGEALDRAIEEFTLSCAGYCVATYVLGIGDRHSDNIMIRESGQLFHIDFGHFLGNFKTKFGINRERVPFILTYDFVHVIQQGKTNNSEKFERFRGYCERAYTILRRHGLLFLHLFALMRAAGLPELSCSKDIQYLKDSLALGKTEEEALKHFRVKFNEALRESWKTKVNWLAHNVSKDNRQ

KM12 = test: Antiproliferative activity against human KM12 cells incubated for 72 hrs by CCK-8 assay; type: functional, cell-based; conditions: KM12, 72 h
T47D [2] = test: Antiproliferative activity against human T47D cells incubated for 72 hrs by CCK-8 assay; type: functional, cell-based
SU-DHL-6 = test: Antiproliferative activity against human SU-DHL-6 cells incubated for 72 hrs by CCK-8 assay; type: functional, cell-based; conditions: SU-DHL-6, 72 h
[3] = Cytotoxicity against HUVEC cells incubated for 72 hrs by CCK-8 assay; conditions: human
[4] = molecular target: Phosphatidylinositol 4,5-bisphosphate 3-kinase catalytic subunit alpha isoform (Homo sapiens, UniProt P42336); test: Inhibition of PI3Kalpha (unknown origin) measured by ADP-Glo assay
Phosphatidylinositol 4,5-bisphosphate 3-kinase catalytic subunit alpha isoform, sequence (P42336 whole entry, canonical isoform): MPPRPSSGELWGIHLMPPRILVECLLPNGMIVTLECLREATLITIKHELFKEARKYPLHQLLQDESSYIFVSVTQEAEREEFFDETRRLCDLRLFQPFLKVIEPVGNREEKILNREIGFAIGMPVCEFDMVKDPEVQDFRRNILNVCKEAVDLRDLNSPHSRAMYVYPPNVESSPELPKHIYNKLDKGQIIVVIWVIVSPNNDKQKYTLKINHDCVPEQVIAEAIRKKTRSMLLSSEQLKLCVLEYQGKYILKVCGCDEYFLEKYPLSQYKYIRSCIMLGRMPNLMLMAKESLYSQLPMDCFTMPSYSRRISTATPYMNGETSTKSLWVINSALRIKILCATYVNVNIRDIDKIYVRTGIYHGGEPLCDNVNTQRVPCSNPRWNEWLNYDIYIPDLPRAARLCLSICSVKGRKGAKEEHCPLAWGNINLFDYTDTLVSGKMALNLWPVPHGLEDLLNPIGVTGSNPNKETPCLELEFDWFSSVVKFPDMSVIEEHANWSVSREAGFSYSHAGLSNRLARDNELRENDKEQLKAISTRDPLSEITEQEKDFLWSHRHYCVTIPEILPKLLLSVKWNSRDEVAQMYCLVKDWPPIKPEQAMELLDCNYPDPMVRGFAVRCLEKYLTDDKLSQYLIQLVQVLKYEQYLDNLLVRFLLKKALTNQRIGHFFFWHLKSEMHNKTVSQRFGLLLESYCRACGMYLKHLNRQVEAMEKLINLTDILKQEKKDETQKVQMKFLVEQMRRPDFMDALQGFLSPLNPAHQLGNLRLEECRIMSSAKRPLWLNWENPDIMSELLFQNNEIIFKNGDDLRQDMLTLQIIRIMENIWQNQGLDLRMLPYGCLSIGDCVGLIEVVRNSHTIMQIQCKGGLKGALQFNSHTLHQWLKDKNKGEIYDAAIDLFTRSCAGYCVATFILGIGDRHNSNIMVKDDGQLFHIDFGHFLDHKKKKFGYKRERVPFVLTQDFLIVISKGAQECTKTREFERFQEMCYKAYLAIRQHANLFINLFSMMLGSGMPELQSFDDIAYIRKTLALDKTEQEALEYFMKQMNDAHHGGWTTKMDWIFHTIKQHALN

[5] = molecular target: Phosphatidylinositol 4,5-bisphosphate 3-kinase catalytic subunit gamma isoform (Homo sapiens, UniProt P48736); test: Inhibition of PI3Kgamma (unknown origin) measured by ADP-Glo assay
Phosphatidylinositol 4,5-bisphosphate 3-kinase catalytic subunit gamma isoform, sequence (P48736 whole entry, canonical isoform): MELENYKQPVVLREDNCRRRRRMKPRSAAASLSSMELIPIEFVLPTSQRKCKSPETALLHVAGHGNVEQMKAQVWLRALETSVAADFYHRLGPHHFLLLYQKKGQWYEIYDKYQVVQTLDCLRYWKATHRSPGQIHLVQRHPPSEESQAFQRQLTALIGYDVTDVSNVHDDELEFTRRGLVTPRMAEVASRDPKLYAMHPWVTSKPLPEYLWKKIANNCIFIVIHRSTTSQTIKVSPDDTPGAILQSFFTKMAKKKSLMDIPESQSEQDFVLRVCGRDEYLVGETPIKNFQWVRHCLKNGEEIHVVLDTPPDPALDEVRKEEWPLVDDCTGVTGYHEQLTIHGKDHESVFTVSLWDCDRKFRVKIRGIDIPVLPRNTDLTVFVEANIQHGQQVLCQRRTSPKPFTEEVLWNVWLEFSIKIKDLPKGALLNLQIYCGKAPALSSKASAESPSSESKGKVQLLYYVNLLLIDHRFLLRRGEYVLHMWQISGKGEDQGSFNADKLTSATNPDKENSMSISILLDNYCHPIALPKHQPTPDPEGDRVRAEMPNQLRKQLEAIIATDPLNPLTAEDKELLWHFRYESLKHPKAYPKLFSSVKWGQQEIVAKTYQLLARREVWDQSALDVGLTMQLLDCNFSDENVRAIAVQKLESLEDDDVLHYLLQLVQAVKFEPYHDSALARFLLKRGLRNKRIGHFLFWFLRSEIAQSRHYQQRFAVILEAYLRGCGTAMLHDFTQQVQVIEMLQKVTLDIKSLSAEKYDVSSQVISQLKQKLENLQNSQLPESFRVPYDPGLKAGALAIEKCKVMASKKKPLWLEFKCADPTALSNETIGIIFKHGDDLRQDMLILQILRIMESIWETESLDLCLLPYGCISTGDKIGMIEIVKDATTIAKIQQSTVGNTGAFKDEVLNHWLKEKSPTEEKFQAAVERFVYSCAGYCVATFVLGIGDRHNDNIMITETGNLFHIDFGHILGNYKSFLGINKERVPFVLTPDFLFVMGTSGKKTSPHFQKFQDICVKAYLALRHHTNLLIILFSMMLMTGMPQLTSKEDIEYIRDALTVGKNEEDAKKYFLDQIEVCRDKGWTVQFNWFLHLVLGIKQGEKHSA

Homo sapiens [6] = species: Homo sapiens; test: Selectivity ratio, ratio IC50 for inhibition of PI3Kalpha (unknown origin) to IC50 for inhibition of PI3Kdelta (unknown origin)
Homo sapiens [7] = species: Homo sapiens; test: Selectivity ratio, ratio IC50 for inhibition of PI3Kgamma (unknown origin) to IC50 for inhibition of PI3Kdelta (unknown origin)
T47D [8] = test: Downregulation of pSTAT3 expression in IL-6-stimulated human T47D cells at 10 to 1000 nM measured by western blot analysis; type: functional, cell-based; conditions: dose 10-1000 nM, DDE = dose-dependent effect
T47D [9] = test: Downregulation of pAKT expression in human T47D cells at 10 to 1000 nM measured by western blot analysis; type: functional, cell-based; conditions: dose 10-1000 nM, DDE = dose-dependent effect
[10] = Cmax in male Sprague-Dawley rat at 2 mg/kg, iv measured upto 24 hrs by LC-MS/MS analysis; type: ADME, organism-based; parameters: time < 24 hrs, dose 2 mg/kg, route iv; conditions: in vivo
[11] = AUC (0 to infinity) in male Sprague-Dawley rat at 2 mg/kg, iv measured upto 24 hrs by LC-MS/MS analysis; type: ADME, organism-based; parameters: time < 24 hrs, dose 2 mg/kg, route iv; conditions: in vivo
Histone deacetylase 1 = Histone deacetylase 1 (Homo sapiens, UniProt Q13547)
Histone deacetylase 1, sequence (Q13547 whole entry): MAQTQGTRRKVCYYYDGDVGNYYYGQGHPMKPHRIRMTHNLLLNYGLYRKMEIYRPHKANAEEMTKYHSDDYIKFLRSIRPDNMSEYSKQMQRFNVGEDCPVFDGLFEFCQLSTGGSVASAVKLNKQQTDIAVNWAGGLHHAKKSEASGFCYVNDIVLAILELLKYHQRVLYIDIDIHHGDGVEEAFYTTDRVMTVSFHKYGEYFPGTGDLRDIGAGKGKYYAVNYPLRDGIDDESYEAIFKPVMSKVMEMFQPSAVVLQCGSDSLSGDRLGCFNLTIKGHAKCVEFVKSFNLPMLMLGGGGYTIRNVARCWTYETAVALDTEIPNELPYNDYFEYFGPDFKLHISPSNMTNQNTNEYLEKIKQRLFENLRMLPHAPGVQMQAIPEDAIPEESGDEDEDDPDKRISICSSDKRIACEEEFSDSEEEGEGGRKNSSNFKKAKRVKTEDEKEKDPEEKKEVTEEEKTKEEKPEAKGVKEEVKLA
Description: Inhibition of HDAC1 (unknown origin) measured by fluorescence based assay

Histone deacetylase 11 = molecular target: T2, Histone deacetylase 11 (Homo sapiens, UniProt Q96DB2)
T2 sequence (Q96DB2 whole entry): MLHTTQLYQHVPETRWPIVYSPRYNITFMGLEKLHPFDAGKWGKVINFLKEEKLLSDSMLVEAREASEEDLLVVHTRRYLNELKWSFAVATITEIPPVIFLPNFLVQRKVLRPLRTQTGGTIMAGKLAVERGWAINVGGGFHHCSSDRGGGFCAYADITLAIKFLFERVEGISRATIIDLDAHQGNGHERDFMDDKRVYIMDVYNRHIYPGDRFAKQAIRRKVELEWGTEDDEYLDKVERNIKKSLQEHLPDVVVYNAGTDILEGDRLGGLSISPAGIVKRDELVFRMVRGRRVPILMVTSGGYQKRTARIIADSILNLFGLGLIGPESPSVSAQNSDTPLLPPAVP
Description: Inhibition of HDAC11 (unknown origin) measured by fluorescence based assay

pIC50 [1]: 8.64
pIC50 (T47D [2]): 7.38
pIC50 (SU-DHL-6): 6.82
pIC50 [4]: 6.77
pIC50 [5]: 7.52
Ratio IC50 (Homo sapiens [6]): 73
Ratio IC50 (Homo sapiens [7]): 13
Cmax [10]: 2120 ng/mL
AUC(0-inf) [11]: 632 ng·h/mL
pIC50 (Histone deacetylase 1): 6.64
pIC50 (Histone deacetylase 11): 5.81
SMILES: N#Cc1c(N)nc(N)nc1N1CC2(CC2)C[C@H]1c1nc2cccc(Cl)c2c(=O)n1Cc1ccc(C(=O)NO)s1
pIC50 (KM12): 5.92
IC50 at 72 h [3]: 37000 nM
Activity (T47D [8]): Dde
Activity (T47D [9]): Dde
